Measurements published in US20080014199A1, “Assessing Cancer And Vimentin” (MAYO FOUNDATION FOR MEDICAL EDUCATION AND RESEARCH, priority 2006, published 2008).
“Also recorded” adds a separate entry of the source. No end group written: not given here. fluorescein = fluorescein label conjugated to the peptide

Tests used:
unmutated CLL B cells = assay: Subtraction biopanning with phage display polypeptide library on unmutated versus mutated CLL B cells; format: binding, human
Description: Phages displaying IgVH mutational status-specific polypeptides were isolated. 10^11 plaque forming units (pfu) of PDPL Ph.D.-7 (New England Biolabs, Ipswich, Mass.) were added to 10^6 unmutated CLL B cells suspended in 1 mL of phosphate buffered saline (PBS) containing 0.5% bovine serum albumin (BSA), and the mixture was incubated at room temperature for 1 hour with gentle rocking (FIG. 1A). The cells with attached phages were spun down and washed three times with PBS containing 0.5% BSA (FIG. 1B). The attached phages were then eluted for 20 minutes by adding 1 mL of elution buffer (1% BSA, 0.2 M Glycine-HCl, pH 2.2; FIG. 1C). The elution buffer was neutralized with 0.15 mL of 1 M Tris-HCl (pH 9.1). The eluted phages were precipitated by adding 0.2 mL of a solution containing 20% (w/v) polyethylene glycol 8,000 (Sigma, Saint Louis, Mo.) and 2.5 M NaCl. The eluted phages were then added to a suspension of 10^6 mutated CLL B cells in PBS with 0.5% BSA and incubated with gentle rocking for 40 minutes. The cells with bound phages (FIG. 1D) were spun down, leaving the supernatant containing unbound phages. This latter step was repeated four times to ensure complete subtraction of phages binding to mutated CLL B cells. The unbound phages in the supernatant were titered, amplified and purified as described elsewhere (Nowakowski et al., Stem Cells, 22(6):1030-8 (2004); FIG. 1E). […]

vimentin [1] = molecular target: T1, vimentin (Homo sapiens, UniProt P08670); assay: Immunoprecipitation of CLL B cell lysates with FPSAHFL phage and anti-phage antibodies, Western blotting, nano LC-MS/MS target identification; format: binding
T1 construct: CLL B cell lysates were immunoprecipitated using phage and anti-phage antibodies; endogenous in cells; host or cells: primary CLL B cells (patient leukemic cells), total protein lysate
T1 sequence (P08670 whole entry): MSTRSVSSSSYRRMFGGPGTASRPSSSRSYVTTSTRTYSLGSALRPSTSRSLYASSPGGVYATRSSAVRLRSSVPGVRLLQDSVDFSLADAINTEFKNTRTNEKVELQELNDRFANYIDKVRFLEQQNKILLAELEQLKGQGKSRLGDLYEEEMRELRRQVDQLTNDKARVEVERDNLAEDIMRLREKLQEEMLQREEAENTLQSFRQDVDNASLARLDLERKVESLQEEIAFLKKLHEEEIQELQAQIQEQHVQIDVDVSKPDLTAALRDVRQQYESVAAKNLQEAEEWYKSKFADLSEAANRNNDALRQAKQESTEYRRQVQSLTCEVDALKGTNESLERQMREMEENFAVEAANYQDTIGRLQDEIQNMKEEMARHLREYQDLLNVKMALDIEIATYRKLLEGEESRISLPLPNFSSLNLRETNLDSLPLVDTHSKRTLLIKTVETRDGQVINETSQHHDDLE
Description: (§1) To identify FPSAHFL (SEQ ID NO:2) polypeptide targets, CLL B cell lysates were immunoprecipitated using phage and anti-phage antibodies. Total protein extracts were prepared from primary leukemic cells (see, Example 1) by lysing cells in cold lysis buffer (30 mM Tris-HCl, pH 7.4; 150 mM NaCl; 1% glycerol (v/v); 1% Triton X-100 (v/v); and 2 mM EDTA) in the presence of phosphatase inhibitors (100 mM NaF, 10 mM Na4P2O4, 1 mM Na2VO4), and protease inhibitors (10 μg/mL Leupeptin, 10 μg/mL Pepstatin A, and 1 mM phenylmethylsulfonyl fluoride (PMSF)). After centrifugation to remove cell debris, protein extracts were immunoprecipitated overnight at 4° C. on a rotator with phages displaying FPSAHFL (SEQ ID NO:2; 10^11 pfu[…]), anti-M13 phage antibodies and 40 μL goat anti-mouse IgG-sepharose 4B beads (Zymed, San Francisco, Calif., USA), according to the manufacturer's instructions. The beads were washed three times with lysis buffer, resuspended into a loading buffer and subjected to SDS-PAGE (5%-15%) under reducing conditions. The polypeptide was visualized by Coomassie blue or silver staining. To confirm that the immunoprecipitated polypeptide was indeed the target for FPSAHFL (SEQ ID NO:2) phage, Western blotting was performed using staining with FPSAHFL (SEQ ID NO:2) phage and anti-M13 phage antibodies. Non-displaying phage were used as a control. […]

CLL B cells = assay: Immunofluorescence staining of CLL B cell cytospins with FPSAHFL-displaying phage or fluorescein labelled polypeptide; format: binding, human; settings: phage plus fluorescent anti-phage antibodies or fluorescein-labelled polypeptide
Description: FIG. 2 contains fluorescence photomicrographs showing binding of the FPSAHFL (SEQ ID NO:2) polypeptide to CLL B cells. CLL B cells were placed on slides by cytospining and were stained with phages displaying the FPSAHFL (SEQ ID NO:2) polypeptide and FITC labeled anti-phage antibody (A and D) or were stained directly with fluorescein conjugated FPSAHFL (SEQ ID NO:2) polypeptide (B, C, and E).
Binding of the FPSAHFL (SEQ ID NO:2) polypeptide to CLL B cells was investigated using immunofluorescence. Cytospins of 10^5 CLL B cells (see, Example 1) were prepared and incubated for 20 minutes at room temperature with phages displaying FPSAHFL (SEQ ID NO:2; 10^8 pfu). The cells were then washed twice with PBS and incubated for 15 minutes at room temperature with 10 μg of mouse anti-M13 phage antibodies (New England Biolabs). The cells were stained for 15 minutes at room temperature with 2 μg of fluorescein isothiocyanate (FITC) labelled secondary anti-mouse antibodies (Vector Laboratories Inc, Burlingame, Calif., USA). Non-displaying M13 phages were used as a control (New England Biolabs) and co-staining with 4′-6-Diamidino-2-phenylindole (DAPI) was used to identify cells. […] The purity of the polypeptide preparation (>99.9%) was assessed by mass spectrometry and high performance liquid chromatography using internal standards.

vimentin [2] = molecular target: T2, vimentin (human (CLL patients), UniProt P08670 2-466); assay: immunoprecipitation from CLL B cell lysate with phage and anti-M13 antibodies; Western blot with phage
T2 construct: Endogenous protein from total protein extracts of CLL patient cells; It ran on SDS-PAGE under reducing conditions for the Western blot; also called 56 kDa band; immunoprecipitated polypeptide
T2 sequence (P08670 2-466 limits assumed): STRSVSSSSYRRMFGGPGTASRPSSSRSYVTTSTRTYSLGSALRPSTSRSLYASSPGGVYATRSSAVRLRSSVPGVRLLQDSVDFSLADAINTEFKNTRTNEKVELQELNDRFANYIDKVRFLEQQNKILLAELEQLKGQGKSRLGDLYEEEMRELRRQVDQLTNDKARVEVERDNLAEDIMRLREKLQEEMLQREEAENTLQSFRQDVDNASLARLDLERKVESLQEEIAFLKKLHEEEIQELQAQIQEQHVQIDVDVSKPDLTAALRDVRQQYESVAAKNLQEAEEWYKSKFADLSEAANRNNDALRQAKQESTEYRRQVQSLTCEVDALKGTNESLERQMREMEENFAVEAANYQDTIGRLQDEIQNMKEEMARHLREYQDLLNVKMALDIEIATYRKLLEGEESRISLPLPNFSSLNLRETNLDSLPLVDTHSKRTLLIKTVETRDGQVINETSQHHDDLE
Description: as §1, with “Na₄P₂O₄,” for “Na4P2O4,”, “Na₂VO₄),” for “Na2VO4),”, “10¹¹” for “10^11”

## FPSAHFL (fluorescein-FPSAHFL) [also synthesized and fluorescein labelled at the N terminus]
Unmutated CLL B cells; fourth round of biopanning
  Percentage of sequenced single phage colonies encoding the polypeptide: 34%
Unmutated CLL B cells; third round of subtraction biopanning
  Percentage of sequenced single phage colonies encoding the polypeptide: 20%
Vimentin [1]; in-gel trypsin digestion, nano LC-MS/MS, Mascot and Sequest
  Target of the polypeptide identified: vimentin
Vimentin [1]; phage bearing the polypeptide and anti-phage antibodies, binding confirmed by Western blotting
  Band immunoprecipitated from CLL polypeptides: 56 kDa
CLL B cells
  Cellular localization of binding (pattern of staining): localized within the cytoplasm; also recorded: cytoplasmic pattern of staining

B1: phage displaying the FPSAHFL (SEQ ID NO:2) polypeptide (peptide, not shown: large carriers)
peptide: FPSAHFL
modifications: also: displayed on M13 phage coat protein, fusion end not given here
notes: 7-mer selected from the Ph.D.-7 phage display library
Vimentin [2]
  binding result: binds
